Here are results for 21 compounds from patent publication US9346815B2, “5-chloro-2-difluoromethoxyphenyl pyrazolopyrimidine compounds, compositions and methods of use thereof” (Genentech, Inc., priority 2014, dated 2016).

The target of assay [1] is isolated recombinant JAK1 kinase domain (Homo sapiens (Human), UniProt P23458). The experiment in a line: JAK1 enzyme assay (Caliper LabChip, peptide phosphorylation). It is filed as biochemical. As to conditions: isolated recombinant JAK1 kinase domain, 25 μM ATP.
Assay [2] addresses isolated recombinant JAK2 kinase domain (Homo sapiens (Human), UniProt O60674). The experiment in a line: JAK2 enzyme assay (Caliper LabChip, peptide phosphorylation). It is filed as biochemical. As to conditions: 25 μM ATP.
The test system of assay [3] is JAK1-dependent STAT6 phosphorylation downstream of IL-13 stimulation in TF-1 human erythroleukemia cells. The experiment in a line: JAK1 pathway assay in TF-1 cells (IL-13-pSTAT6, MSD). Conditions: Homo sapiens, TF-1, TF-1 cells, read-out: IL13-pSTAT6 EC50_TF-1. The class given is cell-based. An outline of the steps: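 BEAS-2B: 1 h, complete growth medium, 100,000 cells/well. TF-1: 30 min, serum-free OptiMEM after overnight GM-CSF starvation, 300,000 cells/well. EC50 reported.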

isolated recombinant JAK1 kinase domain, sequence (P23458 875-1153): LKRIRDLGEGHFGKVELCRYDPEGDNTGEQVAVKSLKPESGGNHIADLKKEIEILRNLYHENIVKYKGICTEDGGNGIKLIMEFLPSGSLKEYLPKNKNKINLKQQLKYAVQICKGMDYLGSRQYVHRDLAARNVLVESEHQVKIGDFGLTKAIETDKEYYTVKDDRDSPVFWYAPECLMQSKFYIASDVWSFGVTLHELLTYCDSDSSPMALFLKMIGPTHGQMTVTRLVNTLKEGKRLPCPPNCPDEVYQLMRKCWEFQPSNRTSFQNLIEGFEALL
isolated recombinant JAK2 kinase domain, sequence (O60674 849-1124): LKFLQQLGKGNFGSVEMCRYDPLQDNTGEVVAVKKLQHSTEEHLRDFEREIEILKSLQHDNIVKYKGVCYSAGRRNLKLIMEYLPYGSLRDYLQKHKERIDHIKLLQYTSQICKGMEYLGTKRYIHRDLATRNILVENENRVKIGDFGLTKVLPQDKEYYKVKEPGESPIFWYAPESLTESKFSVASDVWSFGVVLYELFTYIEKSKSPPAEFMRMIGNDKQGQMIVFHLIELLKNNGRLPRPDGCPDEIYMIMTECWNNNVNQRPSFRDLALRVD

In the case of `CN(CCc1ccccc1)C1CCN(c2nc(-c3cc(Cl)ccc3OC(F)F)c(NC(=O)c3cnn4cccnc34)s2)CC1` [Example 192, N-[4-[5-chloro-2-(difluoromethoxy)phenyl]-2-[4-[methyl(2-phenylethyl)amino]-1-piperidyl]thiazol-5-yl]pyrazolo[1,5-a]pyrimidine-3-carboxamide], the inhibition constant Ki was 5 nM in assay [1] and 3.72 nM in assay [2]. In assay [3], the EC50 was found to be 272 nM.

In the case of `CN(CCCC(N)=O)C1CCN(c2nc(-c3cc(Cl)ccc3OC(F)F)c(NC(=O)c3cnn4cccnc34)s2)CC1` [Example 193, N-[2-[4-[(4-amino-4-oxo-butyl)-methyl-amino]-1-piperidyl]-4-[5-chloro-2-(difluoromethoxy)phenyl]thiazol-5-yl]pyrazolo[1,5-a]pyrimidine-3-carboxamide], the Ki in assay [1] is 2.23 nM; in assay [2], 1.46 nM. Also, the EC50 in assay [3] was 23.5 nM.

With `O=C(Nc1sc(N2CCC(N3CC(F)C3)CC2)nc1-c1cc(Cl)ccc1OC(F)F)c1cnn2cccnc12` [Example 194, N-[4-[5-chloro-2-(difluoromethoxy)phenyl]-2-[4-(3-fluoroazetidin-1-yl)-1-piperidyl]thiazol-5-yl]pyrazolo[1,5-a]pyrimidine-3-carboxamide], the Ki in assay [1] came to 2.28 nM; in assay [2], 1.44 nM. For the same compound, the EC50 in assay [3] was found to be 17.4 nM.

`O=C(Nc1sc(N2CC(N3CCCCC3)C2)nc1-c1cc(Cl)ccc1OC(F)F)c1cnn2cccnc12` [Example 195, N-[4-[5-chloro-2-(difluoromethoxy)phenyl]-2-[3-(1-piperidyl)azetidin-1-yl]thiazol-5-yl]pyrazolo[1,5-a]pyrimidine-3-carboxamide]: the inhibitory constant (Ki) in assay [1] is 1.36 nM; in assay [2] it was 0.86 nM. Further, the EC50 in assay [3] turned out to be 16.5 nM.

As for `O=C(Nc1sc(N2CCC(N3CC(F)(F)C3)CC2)nc1-c1cc(Cl)ccc1OC(F)F)c1cnn2cccnc12` [Example 196, N-[4-[5-chloro-2-(difluoromethoxy)phenyl]-2-[4-(3,3-difluoroazetidin-1-yl)-1-piperidyl]thiazol-5-yl]pyrazolo[1,5-a]pyrimidine-3-carboxamide], the Ki in assay [1] came out at 1.74 nM; in assay [2] it was 1.05 nM. Moreover, in assay [3], the EC50 came out at 17.4 nM.

In the case of `CCCCN(C)C1CCN(c2nc(-c3cc(Cl)ccc3OC(F)F)c(NC(=O)c3cnn4cccnc34)s2)CC1` [Example 199, N-[2-[4-[butyl(methyl)amino]-1-piperidyl]-4-[5-chloro-2-(difluoromethoxy)phenyl]thiazol-5-yl]pyrazolo[1,5-a]pyrimidine-3-carboxamide], the Ki in assay [1] came to 1.22 nM; in assay [2], 1.07 nM. In addition, in assay [3], the EC50 was found to be 7.3 nM.

`CN(Cc1ccccc1)C1CCN(c2nc(-c3cc(Cl)ccc3OC(F)F)c(NC(=O)c3cnn4cccnc34)s2)CC1` [Example 201, N-[2-[4-[benzyl(methyl)amino]-1-piperidyl]-4-[5-chloro-2-(difluoromethoxy)phenyl]thiazol-5-yl]pyrazolo[1,5-a]pyrimidine-3-carboxamide]: the Ki was 5.05 nM in assay [1] and 3.76 nM in assay [2]. Also, the EC50 in assay [3] was determined as 184 nM.

For the compound `CN(CC(F)(F)F)C1CCN(C(=O)C2CCN(c3nc(-c4cc(Cl)ccc4OC(F)F)c(NC(=O)c4cnn5cccnc45)s3)CC2)CC1` [Example 202, N-[4-[5-chloro-2-(difluoromethoxy)phenyl]-2-[4-[4-[methyl(2,2,2-trifluoroethyl)amino]piperidine-1-carbonyl]-1-piperidyl]thiazol-5-yl]pyrazolo[1,5-a]pyrimidine-3-carboxamide], the Ki in assay [1] was 1.1 nM; in assay [2] it was 1.82 nM. Besides, in assay [3], the EC50 was found to be 15.8 nM.

Take `O=C(Nc1sc(N2CCN(CC3CC3)CC2)nc1-c1cc(Cl)ccc1OC(F)F)c1cnn2cccnc12` [Example 207, N-[4-[5-chloro-2-(difluoromethoxy)phenyl]-2-[4-(cyclopropylmethyl)piperazin-1-yl]thiazol-5-yl]pyrazolo[1,5-a]pyrimidine-3-carboxamide]: the Ki in assay [1] is 1.01 nM; in assay [2], 0.69 nM. Further, in assay [3], the EC50 came to 23.6 nM.

`O=C(Nc1sc(N2CCN(CC(F)(F)F)CC2)nc1-c1cc(Cl)ccc1OC(F)F)c1cnn2cccnc12` [Example 208, N-[4-[5-chloro-2-(difluoromethoxy)phenyl]-2-[4-(2,2,2-trifluoroethyl)piperazin-1-yl]thiazol-5-yl]pyrazolo[1,5-a]pyrimidine-3-carboxamide]: the Ki stood at 1.38 nM in assay [1] and 1.08 nM in assay [2]. The EC50 in assay [3] was 33.5 nM.

Regarding `CCCCN(C)CC#Cc1nc(-c2cc(Cl)ccc2OC(F)F)c(NC(=O)c2cnn3cccnc23)s1` [Example 210, N-[2-[3-[butyl(methyl)amino]prop-1-ynyl]-4-[5-chloro-2-(difluoromethoxy)phenyl]thiazol-5-yl]pyrazolo[1,5-a]pyrimidine-3-carboxamide], the Ki in assay [1] amounted to 0.16 nM; in assay [2] it was 0.1 nM. The EC50 in assay [3] came to 240 nM.

As for `CN1CCC2(C1)CN(C(=O)Cn1cc(NC(=O)c3cnn4cccnc34)c(-c3cc(Cl)ccc3OC(F)F)n1)C2` [Example 211, Pyrazolo[1,5-a]pyrimidine-3-carboxylic acid {3-(5-chloro-2-difluoromethoxyphenyl)-1-[2-(6-methyl-2,6-diazaspiro[3.4]oct-2-yl)-2-oxoethyl]-1H-pyrazol-4-yl}amide], the values for the Ki in assay [1] and in assay [2] were 1.1 nM and 1.38 nM, respectively. For the same compound, in assay [3], the EC50 turned out to be 20.9 nM.

On to `CN1CCC2(CCN(C(=O)Cn3cc(NC(=O)c4cnn5cccnc45)c(-c4cc(Cl)ccc4OC(F)F)n3)C2)C1` (stereo not drawn) [Example 212, N-[3-[5-chloro-2-(difluoromethoxy)phenyl]-1-[2-(7-methyl-2,7-diazaspiro[4.4]nonan-2-yl)-2-oxo-ethyl]pyrazol-4-yl]pyrazolo[1,5-a]pyrimidine-3-carboxamide], for which the Ki worked out at 0.91 nM in assay [1] and 1.93 nM in assay [2]. Further, the EC50 in assay [3] came out at 30.6 nM.

For `CN1CCC2(CC1)CN(C(=O)Cn1cc(NC(=O)c3cnn4cccnc34)c(-c3cc(Cl)ccc3OC(F)F)n1)C2` [Example 216, N-[3-[5-chloro-2-(difluoromethoxy)phenyl]-1-[2-(7-methyl-2,7-diazaspiro[3.5]nonan-2-yl)-2-oxo-ethyl]pyrazol-4-yl]pyrazolo[1,5-a]pyrimidine-3-carboxamide], the inhibition constant (Ki) in assay [1] was 1.13 nM; in assay [2], 1.82 nM. The EC50 in assay [3] worked out at 12.5 nM.

`O=C(Nc1cn(CC(=O)N2CC3(CCNC3)C2)nc1-c1cc(Cl)ccc1OC(F)F)c1cnn2cccnc12` [Example 220, N-[3-[5-chloro-2-(difluoromethoxy)phenyl]-1-[2-(2,7-diazaspiro[3.4]octan-2-yl)-2-oxo-ethyl]pyrazol-4-yl]pyrazolo[1,5-a]pyrimidine-3-carboxamide]: the Ki in assay [1] was 1.22 nM; in assay [2] it was 2.71 nM. For the same compound, the EC50 in assay [3] was 1170 nM.

On to `CN1CCC2(CC1)CCN(C(=O)Cn1cc(NC(=O)c3cnn4cccnc34)c(-c3cc(Cl)ccc3OC(F)F)n1)C2` [Example 222, N-[3-[5-chloro-2-(difluoromethoxy)phenyl]-1-[2-(8-methyl-2,8-diazaspiro[4.5]decan-2-yl)-2-oxo-ethyl]pyrazol-4-yl]pyrazolo[1,5-a]pyrimidine-3-carboxamide], for which the Ki in assay [1] is 0.54 nM; in assay [2], 1.59 nM. In assay [3], the EC50 turned out to be 28.9 nM.

Turning to `O=C(Nc1cn(CC(=O)N2CCC3(CCNC3)CC2)nc1-c1cc(Cl)ccc1OC(F)F)c1cnn2cccnc12` [Example 223, N-[3-[5-chloro-2-(difluoromethoxy)phenyl]-1-[2-(2,8-diazaspiro[4.5]decan-8-yl)-2-oxo-ethyl]pyrazol-4-yl]pyrazolo[1,5-a]pyrimidine-3-carboxamide], the Ki in assay [1] came to 0.44 nM; in assay [2], 0.72 nM. Besides, in assay [3], the EC50 is 187 nM.

As to `CN1CCC2(CCN(C(=O)Cn3cc(NC(=O)c4cnn5cccnc45)c(-c4cc(Cl)ccc4OC(F)F)n3)CC2)C1` [Example 224, N-[3-[5-chloro-2-(difluoromethoxy)phenyl]-1-[2-(2-methyl-2,8-diazaspiro[4.5]decan-8-yl)-2-oxo-ethyl]pyrazol-4-yl]pyrazolo[1,5-a]pyrimidine-3-carboxamide], the Ki worked out at 0.56 nM in assay [1] and 1.47 nM in assay [2]. In addition, in assay [3], the EC50 was found to be 19.3 nM.

Turning to `O=C(Nc1cn(CC(=O)N2CCC3(CCN(CC4CCN(C(=O)OCc5ccccc5)CC4)C3)CC2)nc1-c1cc(Cl)ccc1OC(F)F)c1cnn2cccnc12` [Example 226, benzyl 4-[[8-[2-[3-[5-chloro-2-(difluoromethoxy)phenyl]-4-(pyrazolo[1,5-a]pyrimidine-3-carbonylamino)pyrazol-1-yl]acetyl]-2,8-diazaspiro[4.5]decan-2-yl]methyl]piperidine-1-carboxylate], the Ki in assay [1] was determined as 0.41 nM; in assay [2], 1.11 nM. Also, the EC50 in assay [3] worked out at 41.5 nM.

`CN1CCCN(C(=O)Cn2cc(NC(=O)c3cnn4cccnc34)c(-c3cc(Cl)ccc3OC(F)F)n2)CC1` [Example 239, N-[3-[5-chloro-2-(difluoromethoxy)phenyl]-1-[2-(4-methyl-1,4-diazepan-1-yl)-2-oxo-ethyl]pyrazol-4-yl]pyrazolo[1,5-a]pyrimidine-3-carboxamide]: the values for the Ki in assay [1] and in assay [2] were 1.55 nM and 2.38 nM, respectively. Further, the EC50 in assay [3] came to 8.6 nM.

Regarding `CN1CCCN(C(=O)Cn2cc(NC(=O)c3c(N)nn4cccnc34)c(-c3cc(Cl)ccc3OC(F)F)n2)CC1` [Example 246, 2-amino-N-[3-[5-chloro-2-(difluoromethoxy)phenyl]-1-[2-(4-methyl-1,4-diazepan-1-yl)-2-oxo-ethyl]pyrazol-4-yl]pyrazolo[1,5-a]pyrimidine-3-carboxamide], the Ki in assay [1] came to 1.08 nM; in assay [2], 0.57 nM. Also, in assay [3], the EC50 stood at 48.8 nM.

The Ki is the equilibrium dissociation constant of an inhibitor or competing ligand from its target.
